Experimental data published in patent publication US9278941B2, “Azole derivative and uses thereof” (Kureha Corporation, priority 2011, dated 2016).
Like-named read-outs stand apart in the source and are kept apart here.

Key:
[1] = system: Botrytis cinerea; assay: Gray mold disease control effect on cucumbers, foliar spray treatment; assay type: in vivo; conditions: cucumber gray mold, wettable powder foliar spray 1,000 L/ha, four days after inoculation
[2] = system: powdery mildew; assay: Powdery mildew control effect on wheat, foliar spray treatment; assay type: in vivo; conditions: wettable powder foliar spray 1,000 L/ha, seven days after inoculation
[3] = system: wheat leaf rust; assay: Rust control effect on wheat, foliar spray treatment; assay type: in vivo; conditions: wettable powder foliar spray 1,000 L/ha, twelve days after inoculation
[4] = system: wheat brown rust; assay: Brown rust control effect on wheat, seed treatment; assay type: in vivo; conditions: sixteen days after inoculation
Method: A pot test was performed to evaluate the brown rust controlling effect on wheat using seed treatment. Compound (1(−)) or Compound (1(+)) was dissolved in DMSO so the treatment amount was 20 g ai/100 kg seeds or 2 g ai/100 kg seeds, and the solution was smeared on wheat seeds in a vial, and eight wheat seeds were seeded in a 80 cm^2 pot. These were irrigated from below in a greenhouse. Fifteen days after seeding, the seedlings were inoculated with wheat brown rust and then kept for two days in a box. These were again irrigated from below in a greenhouse.

[5] = system: Phaeosphaeria nodorum; assay: Antifungal test for pathogens (PDA plate), P.n; assay type: cell-based; conditions: PDA plate medium
[6] = system: Pseudocercoporella herpotrichoides; assay: Antifungal test for pathogens (PDA plate), P.h; assay type: cell-based; conditions: PDA plate medium
[7] = system: Microdochium nivale; assay: Antifungal test for pathogens (PDA plate), M.n; assay type: cell-based; conditions: PDA plate medium
[8] = system: Gaeumannomyces graminis; assay: Antifungal test for pathogens (PDA plate), G.g; assay type: cell-based; conditions: PDA plate medium
[9] = system: Fusarium graminearum; assay type: cell-based; conditions: PDA plate medium
[10] = system: Ustilago nuda; assay: Antifungal test for pathogens (PDA plate), U.n; assay type: cell-based; conditions: PDA plate medium
[11] = system: Pyricularia oryzae; assay type: cell-based; conditions: PDA plate medium
[12] = system: Rhizoctonia solani; assay: Antifungal test for pathogens (PDA plate), R.s; assay type: cell-based; conditions: PDA plate medium
[13] = system: Gibberella fujikuroi; assay: Antifungal test for pathogens (PDA plate), G.f; assay type: cell-based; conditions: PDA plate medium
[14] = system: Rhizopus oryzae; assay: Antifungal test for pathogens (PDA plate), R.o; assay type: cell-based; conditions: PDA plate medium
[15] = system: Alternaria alternata; assay: Antifungal test for pathogens (PDA plate), A.m; assay type: cell-based; conditions: PDA plate medium
[16] = system: Sclerotinia sclerotiorum; assay: Antifungal test for pathogens (PDA plate), S.s; assay type: cell-based; conditions: PDA plate medium
[17] = system: Botrytis cinerea; assay: Antifungal test for pathogens (PDA plate), B.c; assay type: cell-based; conditions: PDA plate medium
[18] = system: Glomerella cingurata; assay: Antifungal test for pathogens (PDA plate), G.c; assay type: cell-based; conditions: PDA plate medium
[19] = system: Fusarium oxysporum; assay: Antifungal test for pathogens (PDA plate), F.c; assay type: cell-based; conditions: PDA plate medium
[20] = system: Pyrenophora graminea; assay: Antifungal test for pathogens (PDA plate), P.g; assay type: cell-based; conditions: PDA plate medium
[21] = system: Penicillium italicum; assay: Antifungal test for pathogens (PDA plate), P.i; assay type: cell-based; conditions: PDA plate medium
[22] = system: Cercospora beticola; assay: Antifungal test for pathogens (PDA plate), C.b; assay type: cell-based; conditions: PDA plate medium
[23] = system: Rhynchosporium secalis; assay: Antifungal test for pathogens (PDA plate), R.sec; assay type: cell-based; conditions: PDA plate medium
[24] = system: wheat; assay: Phytotoxicity evaluation of growth inhibition of wheat seeds, seed treatment; assay type: in vivo; conditions: fifteen days after seeding, untreated 21 cm
Method: A pot test was used to perform a phytotoxicity evaluation of growth inhibition using a seed treatment. Compound (1(−)) or Compound (1(+)) was dissolved in DMSO so the treatment amount was 2 or 20 g ai/100 kg seeds, and the solution was smeared on wheat seeds in a vial, and eight wheat seeds were seeded in a 80 cm^2 pot. These were irrigated from below in a greenhouse. Fifteen days after seeding, the length of the wheat was evaluated.

[25] = system: various pathogenic filamentous fungi other than wheat leaf blight; assay type: cell-based; conditions: 10 mg/L, PDA plate; all 13 fungi: wheat blight, barley stripe, wheat fusarium, barley loose smut, rice blast, rice sheath blight, rice bakanae, apple leaf spot, Botrytis cinerea, cucumber vine crack, citrus blue mold, sugar beet brown spot, barley cloud fungus
[26] = system: Wheat leaf blight (Septoria tritici); assay: Antifungal test against wheat leaf blight (PDA plate); conditions: 19 days at 25° C.
Method: Wheat leaf blight (Septoria tritici) cultured beforehand in a medium plate was punched out with a 4 mm-diameter cork borer, and inoculated in the plate media containing the agent. After inoculation, they were cultured for 19 days at 25° C., and the growth of the fungus was determined by the diameter of the growth. The growth rate of the fungus in the plate media containing the agent was compared to the growth rate of the fungus in the plate medium not containing the agent, and the filamentous fungi inhibition rate was determined using the following equation. In the equation, R is the filamentous fungi inhibition rate (%), dc is the diameter of the fungal growth in the untreated plate media, and dt is the diameter of the fungal growth in the treated plate media. R=100(dc−dt)/dc

[27] = system: wheat leaf blight; assay: Leaf blotch control effect on wheat, foliar spray treatment; conditions: wettable powder foliar spray 1,000 L/ha, thirty days after inoculation
Method: After blow drying the sprayed leaves, the plants were sprinkled and inoculated with wheat leaf blight. Thirty days after inoculation, the morbidity of the wheat to powdery mildew was evaluated according to the criteria shown in Table 3, and the preventative value was calculated using the following equation. When the average morbidity of the sprayed plot was higher than the average morbidity of the unsprayed plot, the preventative value was 0%. Preventative value (%)=(1−(average morbidity of the sprayed plot/average morbidity of the unsprayed plot))×100.

COC(=O)[C@]1(C)CC[C@H](Cc2ccc(Cl)cc2)[C@@]1(O)Cn1cncn1 (relative stereo) [Compound (1(+)), (1,2-cis, 1,3-cis)-3-(4-chlorobenzyl)-2-hydroxy-1-methyl-2-(1H-1,2,4-triazole-1-ylmethyl)cyclopentanecarboxylic acid methyl ester]
Preventative Value (%) ([1]; sample conc. 12.5 mg/L): 0% | Preventative Value (%) ([1]; sample conc. 50.0 mg/L): 17.6% | Preventative Value (%) ([2]; sample conc. 12.5 mg/L): 24% | Preventative Value (%) ([2]; sample conc. 50.0 mg/L): 94% | Preventative Value (%) ([3]; sample conc. 0.8 mg/L): 0% | Preventative Value (%) ([3]; sample conc. 3.1 mg/L): 0% | Preventative Value (%) ([4]; seed treatment 2 g ai/100 kg seeds): 0% | Preventative Value (%) ([4]; seed treatment 20 g ai/100 kg seeds): 5% | Antifungal Index of Each Strain P.n ([5]; Sample Conc. 1.25 mg/L): 2 (70%-60%) | Antifungal Index of Each Strain P.n ([5]; Sample Conc. 2.5 mg/L): 2 (70%-60%) | Antifungal Index of Each Strain P.n ([5]; Sample Conc. 5 mg/L): 2 (70%-60%) | Antifungal Index of Each Strain P.h ([6]; Sample Conc. 1.25 mg/L): 1 (<60%) | Antifungal Index of Each Strain P.h ([6]; Sample Conc. 2.5 mg/L): 1 (<60%) | Antifungal Index of Each Strain P.h ([6]; Sample Conc. 5 mg/L): 1 (<60%) | Antifungal Index of Each Strain M.n ([7]; Sample Conc. 1.25 mg/L): 1 (<60%) | Antifungal Index of Each Strain M.n ([7]; Sample Conc. 2.5 mg/L): 1 (<60%) | Antifungal Index of Each Strain M.n ([7]; Sample Conc. 5 mg/L): 1 (<60%) | Antifungal Index of Each Strain G.g ([8]; Sample Conc. 1.25 mg/L): 1 (<60%) | Antifungal Index of Each Strain G.g ([8]; Sample Conc. 2.5 mg/L): 2 (70%-60%) | Antifungal Index of Each Strain G.g ([8]; Sample Conc. 5 mg/L): 4 (90%-80%) | Antifungal Index of Each Strain F.g ([9]; Sample Conc. 1.25 mg/L): 1 (<60%) | Antifungal Index of Each Strain F.g ([9]; Sample Conc. 2.5 mg/L): 1 (<60%) | Antifungal Index of Each Strain F.g ([9]; Sample Conc. 5 mg/L): 2 (70%-60%) | Antifungal Index of Each Strain U.n ([10]; Sample Conc. 1.25 mg/L): 2 (70%-60%) | Antifungal Index of Each Strain U.n ([10]; Sample Conc. 2.5 mg/L): 3 (80%-70%) | Antifungal Index of Each Strain U.n ([10]; Sample Conc. 5 mg/L): 4 (90%-80%) | Antifungal Index of Each Strain P.o ([11]; Sample Conc. 1.25 mg/L): 1 (<60%) | Antifungal Index of Each Strain P.o ([11]; Sample Conc. 2.5 mg/L): 2 (70%-60%) | Antifungal Index of Each Strain P.o ([11]; Sample Conc. 5 mg/L): 5 (>90%) | Antifungal Index of Each Strain R.s ([12]; Sample Conc. 1.25 mg/L): 2 (70%-60%) | Antifungal Index of Each Strain R.s ([12]; Sample Conc. 2.5 mg/L): 2 (70%-60%) | Antifungal Index of Each Strain R.s ([12]; Sample Conc. 5 mg/L): 4 (90%-80%) | Antifungal Index of Each Strain G.f ([13]; Sample Conc. 1.25 mg/L): 1 (<60%) | Antifungal Index of Each Strain G.f ([13]; Sample Conc. 2.5 mg/L): 2 (70%-60%) | Antifungal Index of Each Strain G.f ([13]; Sample Conc. 5 mg/L): 3 (80%-70%) | Antifungal Index of Each Strain R.o ([14]; Sample Conc. 1.25 mg/L): 1 (<60%) | Antifungal Index of Each Strain R.o ([14]; Sample Conc. 2.5 mg/L): 1 (<60%) | Antifungal Index of Each Strain R.o ([14]; Sample Conc. 5 mg/L): 1 (<60%) | Antifungal Index of Each Strain A.m ([15]; Sample Conc. 1.25 mg/L): 1 (<60%) | Antifungal Index of Each Strain A.m ([15]; Sample Conc. 2.5 mg/L): 2 (70%-60%) | Antifungal Index of Each Strain A.m ([15]; Sample Conc. 5 mg/L): 3 (80%-70%) | Antifungal Index of Each Strain S.s ([16]; Sample Conc. 1.25 mg/L): 1 (<60%) | Antifungal Index of Each Strain S.s ([16]; Sample Conc. 2.5 mg/L): 1 (<60%) | Antifungal Index of Each Strain S.s ([16]; Sample Conc. 5 mg/L): 1 (<60%) | Antifungal Index of Each Strain B.c ([17]; Sample Conc. 1.25 mg/L): 1 (<60%) | Antifungal Index of Each Strain B.c ([17]; Sample Conc. 2.5 mg/L): 1 (<60%) | Antifungal Index of Each Strain B.c ([17]; Sample Conc. 5 mg/L): 4 (90%-80%) | Antifungal Index of Each Strain G.c ([18]; Sample Conc. 1.25 mg/L): 1 (<60%) | Antifungal Index of Each Strain G.c ([18]; Sample Conc. 2.5 mg/L): 1 (<60%) | Antifungal Index of Each Strain G.c ([18]; Sample Conc. 5 mg/L): 2 (70%-60%) | Antifungal Index of Each Strain F.c ([19]; Sample Conc. 1.25 mg/L): 2 (70%-60%) | Antifungal Index of Each Strain F.c ([19]; Sample Conc. 2.5 mg/L): 3 (80%-70%) | Antifungal Index of Each Strain F.c ([19]; Sample Conc. 5 mg/L): 4 (90%-80%) | Antifungal Index of Each Strain P.g ([20]; Sample Conc. 0.08 mg/L): 1 (<60%) | Antifungal Index of Each Strain P.g ([20]; Sample Conc. 0.16 mg/L): 1 (<60%) | Antifungal Index of Each Strain P.g ([20]; Sample Conc. 0.31 mg/L): 4 (90%-80%) | Antifungal Index of Each Strain P.g ([20]; Sample Conc. 0.63 mg/L): 5 (>90%) | Antifungal Index of Each Strain P.i ([21]; Sample Conc. 0.08 mg/L): 1 (<60%) | Antifungal Index of Each Strain P.i ([21]; Sample Conc. 0.16 mg/L): 1 (<60%) | Antifungal Index of Each Strain P.i ([21]; Sample Conc. 0.31 mg/L): 1 (<60%) | Antifungal Index of Each Strain P.i ([21]; Sample Conc. 0.63 mg/L): 2 (70%-60%) | Antifungal Index of Each Strain C.b ([22]; Sample Conc. 0.08 mg/L): 1 (<60%) | Antifungal Index of Each Strain C.b ([22]; Sample Conc. 0.16 mg/L): 2 (70%-60%) | Antifungal Index of Each Strain C.b ([22]; Sample Conc. 0.31 mg/L): 3 (80%-70%) | Antifungal Index of Each Strain C.b ([22]; Sample Conc. 0.63 mg/L): 4 (90%-80%) | Antifungal Index of Each Strain R.sec ([23]; Sample Conc. 0.08 mg/L): 3 (80%-70%) | Antifungal Index of Each Strain R.sec ([23]; Sample Conc. 0.16 mg/L): 5 (>90%) | Antifungal Index of Each Strain R.sec ([23]; Sample Conc. 0.31 mg/L): 5 (>90%) | Antifungal Index of Each Strain R.sec ([23]; Sample Conc. 0.63 mg/L): 5 (>90%) | Average Plant Length (cm) ([24]; wheat seed treatment 2 g ai/100 kg seeds): 22 cm | Average Plant Length (cm) ([24]; wheat seed treatment 20 g ai/100 kg seeds): 14 cm | filamentous fungi inhibition rate R [25]: ≥ 80% | Antifungal Index ([26]; sample conc. 0.31 mg/L): 3 (80%-70%) | Antifungal Index ([26]; sample conc. 0.63 mg/L): 3 (80%-70%) | Antifungal Index ([26]; sample conc. 1.25 mg/L): 5 (>90%) | Preventative Value (%) ([27]; sample conc. 12.5 mg/L): 67.5% | Preventative Value (%) ([27]; sample conc. 50 mg/L): 77.5%
